# Assay results reported in patent publication US12453716B2, “Small molecule antagonist to PACAP receptor and uses thereof” (University of Vermont and State Agricultural College, priority 2019, dated 2025).
# What was measured:
# PAC1 receptor [1] = target: T1, PAC1 receptor (Homo sapiens, UniProt P41586); test: PACAP-stimulated ERK phosphorylation/activation in HEK PAC1-EGFP receptor cell line; format: cell-based; conditions: for PAC1 receptor endosomal/ligand-mediated ERK activation: concentration not given
# T1 construct: expressed in transfected cells
# T1 sequence (P41586 21-468): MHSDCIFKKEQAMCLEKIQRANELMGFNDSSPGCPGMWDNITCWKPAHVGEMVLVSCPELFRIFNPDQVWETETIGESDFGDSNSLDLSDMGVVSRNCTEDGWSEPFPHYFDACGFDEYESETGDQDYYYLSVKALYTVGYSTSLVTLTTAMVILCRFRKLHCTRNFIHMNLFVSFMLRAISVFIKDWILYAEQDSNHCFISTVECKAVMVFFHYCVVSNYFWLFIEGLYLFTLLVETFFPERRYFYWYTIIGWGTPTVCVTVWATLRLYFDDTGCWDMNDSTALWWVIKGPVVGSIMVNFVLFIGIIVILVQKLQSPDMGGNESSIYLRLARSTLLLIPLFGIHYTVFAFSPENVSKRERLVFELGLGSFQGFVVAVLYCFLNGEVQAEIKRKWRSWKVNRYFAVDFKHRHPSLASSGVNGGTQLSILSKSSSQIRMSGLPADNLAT
# Method: In FIG. 3, using the stably expressing HEK PAC1-EGFP receptor cell line, compound I-1 blocks 25 nM PACAP-stimulated ERK phosphorylation and activation (p42 and p44 ERK bands) in a dose-dependent manner. […] In similar assays, the other compounds (I-2 to I-26) can block PACAP-stimulated ERK signaling with an apparent IC50 of 25 μM.
# In FIG. 5, the compound I-20 acts as a glucagon receptor (GCGR) antagonist by binding to an extra-helical allosteric site on the receptor. […] In FIG. 6, the addition of compound I-20 can increase the efficacy and potency of […] inhibiting PACAP-stimulated ERK activation.
# In FIG. 7, all samples were pretreated with 25 μM acyl hydrazide before 25 nM PACAP application. Glucagon antagonist is I-20. Data normalized to total cellular ERK not shown.
# PAC1 receptor [2] = target: T1, PAC1 receptor; test: PACAP-stimulated calcium signaling, Fura-2 assay in HEK PAC1-EGFP cell line; format: cell-based; conditions: for PAC1 receptor-mediated calcium flux: concentration not given
# Method: (§1) Compound I-1 blocks PAC1 receptor internalization and calcium signaling. […] Upon 25 nM PACAP application (15 min), the tagged receptor is internalized into intracellular endosomes for ERK signaling (PACAP, middle panel). However, pretreatment of the culture (15 min) with 10-25 μM I-1 blocked PACAP-stimulated receptor internalization (PACAP+I-1); the PAC1-EGFP receptors remained on the cell surface. In FIG. 2, using the same HEK PAC1-EGFP cell line, PACAP rapidly stimulated calcium signaling in Fura-2 assays. The response was blocked approximately 50% with 2.5 μM compound I-1, and was abolished with 25 μM I-1.
# The PAC1-EGFP HEK cell lines were preloaded with Fura-2 for calcium imaging. PACAP alone produced robust calcium signals.
# PAC1 receptor [3] = target: T1, PAC1 receptor; test: PACAP-stimulated PAC1-EGFP receptor internalization in stable HEK cell line; format: cell-based
# Method: as §1
# male rats = test: Open field test after BNST infusion, PACAP-induced anxiety-related behavior; format: in vivo, rat; conditions: FIG. 8
# Description: Compound I-1 blocks PACAP-induced anxiety-related behavior. In FIG. 8, male rats were cannulated bilaterally into the BNST. […] PACAP infusions into the BNST produced stress/anxiety-like responses as reflected by decreased center field times (duration in seconds). […] In the right panel, the open field entry data was not affected by changes in animal locomotion. Asterisk, statistically different from other groups. Note: I-1+PACAP returned open field times to untreated control levels.
structure (smiles),measurement,setting,value
COc1ccc2cc(-c3cc(-c4cc(Cl)cc(Cl)c4)nn3C(C)c3ccc(C(=O)NCCC(=O)O)cc3)ccc2c1 (stereo not drawn) [Compound I-20],ERK activation attenuated,"PAC1 receptor [1]; 25 μM compound, FIG. 5",approximately 50%
same,Antagonism at the PAC1-receptor compared to I-1,PAC1 receptor [1]; FIG. 5,weak antagonist
same,"PACAP-stimulated ERK activation, combination","PAC1 receptor [1]; I-20 together with 10 μM I-1, FIG. 6",basal or near-basal levels
"Cc1cc(C)c(C)c(Cn2ccc3c(/C=N/NC(=O)c4ccc(O)c(Cl)c4)cccc32)c1C [Compound I-19, (E)-3-chloro-4-hydroxy-N′-((1-(2,3,5,6-tetramethylbenzyl)-1H-indol-4-yl)methylene)benzohydrazide]",PAC1 receptor-mediated calcium flux,PAC1 receptor [2],completely blocking
same,PAC1 receptor endosomal/ligand-mediated ERK activation,PAC1 receptor [1],without apparent effects
"O=C(N/N=C/c1cccc2c1ccn2Cc1cc(F)cc(F)c1)c1ccc(O)c(Cl)c1 [Compound I-1, (E)-3-chloro-N′-((1-(3,5-difluorobenzyl)-1H-indol-4-yl)methylene)-4-hydroxybenzohydrazide]",PACAP-stimulated receptor internalization,"PAC1 receptor [3]; 15 min pretreatment with 10-25 μM compound, 25 nM PACAP, 15 min, FIG. 1",blocked
same,PACAP-stimulated calcium signal blocked,PAC1 receptor [2]; 2.5 μM compound,approximately 50%
same,PACAP-stimulated calcium signal/flux,PAC1 receptor [2]; 25 μM compound,abolished
same,PACAP-stimulated ERK activation,"PAC1 receptor [1]; 25 μM compound, 25 nM PACAP, FIG. 3",near control levels
same,IC50,"PAC1 receptor [1]; normalized to total ERK levels, approximate/apparent, FIG. 4, read-out: IC50 in inhibiting PACAP-stimulated ERK activation",8 to 10 µM
same,"Open field center field time, compound alone compared to control","male rats; 5-10 μM infusion into the BNST, no PACAP",no apparent effects
same,PACAP-induced stress/anxiety responses (open field center field time),male rats; BNST preinjection of compound before PACAP infusion,completely blocked
"O=C(N/N=C/c1cccc2c1ccn2Cc1cccc(C(F)(F)F)c1)c1ccc(O)c(Cl)c1 [Compound I-21, reference compound]",PAC1 receptor internalization,PAC1 receptor [3]; concentration not given,modest effects
same,PAC1 receptor-mediated calcium flux,PAC1 receptor [2],attenuate
same,PAC1 receptor endosomal/ligand-mediated ERK activation,PAC1 receptor [1],modest effects
